From PubChem BioAssay (NCI)
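Step 1: Grow cells in 96-well plates. Step 2: Expose to compound for 48 hours at 5 concentrations. Step 3: Interpolate endpoints linearly; if unreached, use highest concentration. GI50: concentration for 50% inhibition of growth. TGI marks complete inhibition of growth.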

How the values were obtained:
Test in all cases: DTP human tumour cell line panel, 48 h
786-0 renal = tested on: 786-0 renal
CAKI-1 renal = tested on: CAKI-1 renal
HOP-62 NSCLC = tested on: HOP-62 NSCLC
HS 578T breast = tested on: HS 578T breast
HT29 colon = tested on: HT29 colon
NCI-H460 lung = tested on: NCI-H460 lung
OVCAR-5 ovarian = tested on: OVCAR-5 ovarian
UO-31 renal = tested on: UO-31 renal
OVCAR-4 ovarian = tested on: OVCAR-4 ovarian
RPMI-8226 leukemia = tested on: RPMI-8226 leukemia

Structure (SMILES) | TGI (786-0 renal) [µM] | TGI (CAKI-1 renal) [µM] | TGI (HOP-62 NSCLC) [µM] | TGI (HS 578T breast) [µM] | TGI (HT29 colon) [µM] | TGI (NCI-H460 lung) [µM] | TGI (OVCAR-5 ovarian) [µM] | TGI (UO-31 renal) [µM] | TGI (OVCAR-4 ovarian) [µM] | TGI (RPMI-8226 leukemia) [µM] | GI50 (HS 578T breast) [µM] | GI50 (OVCAR-5 ovarian) [µM] | GI50 (RPMI-8226 leukemia) [µM] | GI50 (UO-31 renal) [µM]
O=C(N/N=C/c1ccc(O)cc1)NNCCO | > 100 | > 100 | > 100 | > 100 | > 100 | > 100 | > 100 | > 100 | – | – | – | – | – | –
CC(C)C(N=C1CC2CCC1(C(=O)Nc1ccccc1O)C2(C)C)c1ccccc1 (centres undefined) | > 10 | > 10 | > 10 | – | > 10 | > 10 | > 10 | > 10 | > 10 | > 10 | – | – | – | –
N#Cc1cc([N+](=O)[O-])ccc1NC(=O)C(=O)Nn1c(=S)[nH]c2ccccc2c1=O | > 100 | > 100 | > 100 | – | > 100 | > 100 | > 100 | > 100 | > 100 | > 100 | – | – | – | –
Cn1cnc([N+](=O)[O-])c1Sc1nnc(-c2ccc(Cl)cc2)n1C | – | 29.7 | > 100 | – | 32 | 55.7 | 34.8 | 32.8 | 27.1 | 71.3 | – | – | – | –
COC(=O)C12CCC(CC1=O)C2(C)C (centres undefined) | > 100 | – | > 100 | – | > 100 | > 100 | – | > 100 | > 100 | > 100 | – | – | – | –
CN1C(=O)c2c(c3c4ccccc4n(C)c3c3c2c2ccccc2n3C)C1=O | > 100 | > 100 | > 100 | – | > 100 | > 100 | > 100 | > 100 | > 100 | > 100 | – | – | – | –
O=C(C#Cc1ccccc1)Nc1ccccc1CC(c1c[nH]c2ccccc12)c1c[nH]c2ccccc12 | 29.4 | > 100 | > 100 | – | 87.9 | – | – | > 100 | – | 16.8 | – | – | – | –
OC[C@H](O)[C@@H](OCc1ccccc1)[C@H](NCc1ccccc1)c1cccs1 | > 100 | > 100 | > 100 | – | > 100 | > 100 | > 100 | 68.8 | > 100 | > 100 | – | – | – | –
CCCN1CCN(c2ccc3nc(-c4ccc5nc(-c6ccc(OCC)cc6)[nH]c5c4)[nH]c3c2)CC1 | – | – | – | 50.1 | – | – | 3.36 | 43.9 | – | 2.85 | 3.59 | 1.88 | 0.382 | 14.3
COc1cc2ccnc3c2c(c1OC)N(C)C=C3 | 53.6 | 44.8 | > 100 | > 100 | – | 29 | > 100 | 33.1 | 71.2 | 82.2 | – | – | – | –
O=C1C2Cc3ccccc3CN2C(=O)N1CN1CCCCC1 (centres undefined) | > 100 | > 100 | > 100 | – | – | > 100 | > 100 | > 100 | > 100 | > 100 | – | – | – | –
COc1ccc2nc3c(nc2c1)C(C)(C)C=C3c1ccc(Br)cc1 | > 100 | > 100 | > 100 | > 100 | > 100 | > 100 | > 100 | – | > 100 | > 100 | – | – | – | –
